From patent US20050009924A1 (priority 2003, published 2005)
Read-outs that look alike come from different tables or passages of the source.

How the values were obtained:
rat glioma C6 cells = test: Cytotoxicity assay (XTT colorimetric), C6 cells; assay type: cell-based
human hepatoma G2 cells = test: Cytotoxicity assay (XTT colorimetric), Hep G2; assay type: cell-based
[1] = tested on: hepatitis B virus transfected hepatoma cell lines, HepG 2.2.15 cells; test: Cytotoxicity assay, 2.2.15 cells; assay type: cell-based, human

| Compound | IC50 (rat glioma C6 cells; 48 h of drug exposure) [µM] | IC50 (human hepatoma G2 cells; 48 h of drug exposure) [µM] | IC50 ([1]; 48 h of drug exposure) [µM] | IC50 (rat glioma C6 cells) [µM] | IC50 (human hepatoma G2 cells) [µM] | IC50 [1] [µM] |
| --- | --- | --- | --- | --- | --- | --- |
| CC(C)CNc1cccc2c1C(=O)c1c(NCC(C)C)cccc1C2=O [Vd] | 1.32 ± 0.01 | > 20 | > 20 | – | – | – |
| CCCCCCNc1cccc2c1C(=O)c1c(NCCCCCC)cccc1C2=O [Ve] | – | – | – | > 20 | > 20 | > 20 |
| CC(C)Nc1cccc2c1C(=O)c1c(NC(C)C)cccc1C2=O [Vf, 1,8-Bis(isopropylamine)-anthraquinone] | 1.24 ± 0.01 | > 20 | > 20 | – | – | – |
| O=C1c2cccc(NCCO)c2C(=O)c2c(NCCO)cccc21 [Vg] | – | – | – | 0.02 ± 0.01 | > 20 | > 20 |
| O=C1c2cccc(NCCCO)c2C(=O)c2c(NCCCO)cccc21 [Vh] | 1 ± 0.01 | > 20 | > 20 | – | – | – |
| O=C1c2cccc(NCCCCO)c2C(=O)c2c(NCCCCO)cccc21 [Vi] | 0.41 ± 0.02 | 1.65 | > 20 | – | – | – |
| CN(C)CCNc1cccc2c1C(=O)c1c(NCCN(C)C)cccc1C2=O [Vj] | 0.15 ± 0.04 | 0.16 | 8.55 | – | – | – |
| NCCCNc1cccc2c1C(=O)c1c(NCCCN)cccc1C2=O [Vk] | > 20 | 11.4 ± 0.17 | > 20 | – | – | – |
| NCCCCNc1cccc2c1C(=O)c1c(NCCCCN)cccc1C2=O [Vl] | > 20 | 11.5 ± 0.34 | > 20 | – | – | – |
| O=C1c2cccc(NC3CCCC3)c2C(=O)c2c(NC3CCCC3)cccc21 [Vn] | > 20 | > 20 | > 20 | – | – | – |
| O=C1c2cccc(NCc3ccccc3)c2C(=O)c2c(NCc3ccccc3)cccc21 [Vo] | 1.66 ± 0.09 | > 20 | > 20 | – | – | – |
| O=C1c2cccc(NCCc3ccccc3)c2C(=O)c2c(NCCc3ccccc3)cccc21 [Vp] | > 20 | > 20 | > 20 | – | – | – |
